According to PMC3914206:

What was measured:
panel of 442 kinases [1] = biological target: T1, panel of 442 kinases (Homo sapiens, UniProt P07949); type: binding; conditions: Compound Concentration 10 µM
T1 construct: purchased KINOMEscan
Source text: (§1) We assessed the selectivity of members of this scaffold using the KINOMEscan methodology across a near comprehensive panel of 442 kinases [[18,27]].

panel of 442 kinases [2] = biological target: T2, panel of 442 kinases (Homo sapiens, UniProt Q8TD19); type: binding; conditions: Compound Concentration 10 µM
T2 construct: purchased KINOMEscan
T2 sequence (Q8TD19 1-979): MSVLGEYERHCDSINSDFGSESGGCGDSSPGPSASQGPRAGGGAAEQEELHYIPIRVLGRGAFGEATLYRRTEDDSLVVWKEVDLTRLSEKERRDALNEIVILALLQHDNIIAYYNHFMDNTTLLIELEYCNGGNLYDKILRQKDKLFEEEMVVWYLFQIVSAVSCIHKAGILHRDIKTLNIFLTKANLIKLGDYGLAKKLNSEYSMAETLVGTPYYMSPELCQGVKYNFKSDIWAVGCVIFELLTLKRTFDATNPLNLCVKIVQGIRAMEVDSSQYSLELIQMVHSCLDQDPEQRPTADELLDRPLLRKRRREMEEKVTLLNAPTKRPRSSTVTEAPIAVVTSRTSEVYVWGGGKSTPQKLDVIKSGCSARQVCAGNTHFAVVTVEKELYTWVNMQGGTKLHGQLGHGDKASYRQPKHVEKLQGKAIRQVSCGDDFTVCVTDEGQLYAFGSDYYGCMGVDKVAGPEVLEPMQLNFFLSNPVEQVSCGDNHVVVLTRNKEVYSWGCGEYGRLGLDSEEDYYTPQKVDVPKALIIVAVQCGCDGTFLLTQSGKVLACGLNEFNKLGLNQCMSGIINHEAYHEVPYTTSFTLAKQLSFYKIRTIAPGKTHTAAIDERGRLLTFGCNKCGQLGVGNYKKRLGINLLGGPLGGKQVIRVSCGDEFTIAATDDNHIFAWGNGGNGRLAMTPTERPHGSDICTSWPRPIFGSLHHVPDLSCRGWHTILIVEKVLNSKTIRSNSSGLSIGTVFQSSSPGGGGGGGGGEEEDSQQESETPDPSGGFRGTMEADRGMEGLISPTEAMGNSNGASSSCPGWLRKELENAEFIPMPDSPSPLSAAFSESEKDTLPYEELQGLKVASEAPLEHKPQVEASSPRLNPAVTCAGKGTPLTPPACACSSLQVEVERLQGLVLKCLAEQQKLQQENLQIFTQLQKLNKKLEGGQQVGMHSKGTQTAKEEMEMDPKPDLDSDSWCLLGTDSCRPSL
Source text: as §1

T1 sequence (P07949 29-1114): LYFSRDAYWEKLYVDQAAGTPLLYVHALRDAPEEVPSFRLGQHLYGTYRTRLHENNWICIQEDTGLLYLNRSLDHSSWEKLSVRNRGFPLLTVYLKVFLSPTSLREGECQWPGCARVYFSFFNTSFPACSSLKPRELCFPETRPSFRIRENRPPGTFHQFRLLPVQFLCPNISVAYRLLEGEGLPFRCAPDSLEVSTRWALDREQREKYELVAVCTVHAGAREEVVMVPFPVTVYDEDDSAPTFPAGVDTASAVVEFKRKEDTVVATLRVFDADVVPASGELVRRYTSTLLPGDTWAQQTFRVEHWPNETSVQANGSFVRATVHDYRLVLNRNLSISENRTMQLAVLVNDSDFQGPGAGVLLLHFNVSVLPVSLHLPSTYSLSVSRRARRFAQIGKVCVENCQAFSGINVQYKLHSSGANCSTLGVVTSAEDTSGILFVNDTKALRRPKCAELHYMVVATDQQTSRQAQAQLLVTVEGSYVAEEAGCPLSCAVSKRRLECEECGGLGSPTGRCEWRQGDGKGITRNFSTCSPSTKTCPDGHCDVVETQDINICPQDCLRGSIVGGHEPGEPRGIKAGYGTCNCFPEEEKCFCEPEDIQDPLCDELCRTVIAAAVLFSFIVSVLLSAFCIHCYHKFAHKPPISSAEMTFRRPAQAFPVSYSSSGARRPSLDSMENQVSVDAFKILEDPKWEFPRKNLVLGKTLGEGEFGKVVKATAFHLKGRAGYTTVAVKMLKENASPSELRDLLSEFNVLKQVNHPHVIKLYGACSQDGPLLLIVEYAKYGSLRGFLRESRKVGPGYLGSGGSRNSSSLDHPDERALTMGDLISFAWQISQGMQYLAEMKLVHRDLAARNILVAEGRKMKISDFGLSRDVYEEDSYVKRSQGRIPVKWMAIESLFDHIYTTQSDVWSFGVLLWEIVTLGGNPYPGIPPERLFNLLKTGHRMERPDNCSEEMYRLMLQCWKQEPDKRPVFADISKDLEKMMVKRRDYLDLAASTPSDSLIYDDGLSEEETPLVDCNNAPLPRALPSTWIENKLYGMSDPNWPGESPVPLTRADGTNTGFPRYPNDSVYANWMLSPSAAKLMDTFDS

CCOc1cc(C(=O)N2CCC(N3CCN(C)CC3)CC2)ccc1Nc1ncc2c(n1)N(C1CCCC1)c1ccccc1C(=O)N2C [Compound 26]
KINOMEscan: RET (panel of 442 kinases [1]): 100 | KINOMEscan: NEK9 (panel of 442 kinases [2]): 100

COc1cc(C(=O)N2CCC(N3CCN(C)CC3)CC2)ccc1Nc1ncc2c(n1)N(C1CCCC1)c1ccccc1C(=O)N2C [Compound 25, 11-cyclopentyl-2-((2-methoxy-4-(4-(4-methylpiperazin-1-yl)piperidine-1-carbonyl)phenyl)amino)-5-methyl-5H-benzo[e]pyrimido[5,4-b][1,4]diazepin-6(11H)-one]
KINOMEscan: RET (panel of 442 kinases [1]): 100 | KINOMEscan: NEK9 (panel of 442 kinases [2]): 98

COc1cc(C(=O)N2CCC(N3CCN(C)CC3)CC2)ccc1Nc1ncc2c(n1)N1CCc3cccc(c31)C(=O)N2C [Compound 24]
KINOMEscan: NEK9 (panel of 442 kinases [2]): 87

COc1cc(C(=O)N2CCC(N3CCN(C)CC3)CC2)ccc1Nc1ncc2c(n1)N(C)c1ccccc1C(=O)N2C [15 (LRRK2-IN-1)]
KINOMEscan: RET (panel of 442 kinases [1]): 100 | KINOMEscan: NEK9 (panel of 442 kinases [2]): 100
